# Results published in patent US6887896B1, “7-[(7-Alkoxy)-chrom-3-en-6-yl]-heptatrienoic acid and 7-[(3-alkoxy)-5,6-dihydronaphthalen-2-yl]-heptatrienoic acid derivatives having serum glucose reducing activity” (Allergan, Inc., priority 2003, dated 2005).
# Experiments:
# RARβ [1] = molecular target: T1, RARβ (Homo sapiens, UniProt P10826); test: ligand binding assay, RARβ; details: for Ki: read-out: RAR Bind. Ki β; for Kd: Table 9 (Formula F), read-out: RAR β Kd
# T1 sequence (P10826 1-455): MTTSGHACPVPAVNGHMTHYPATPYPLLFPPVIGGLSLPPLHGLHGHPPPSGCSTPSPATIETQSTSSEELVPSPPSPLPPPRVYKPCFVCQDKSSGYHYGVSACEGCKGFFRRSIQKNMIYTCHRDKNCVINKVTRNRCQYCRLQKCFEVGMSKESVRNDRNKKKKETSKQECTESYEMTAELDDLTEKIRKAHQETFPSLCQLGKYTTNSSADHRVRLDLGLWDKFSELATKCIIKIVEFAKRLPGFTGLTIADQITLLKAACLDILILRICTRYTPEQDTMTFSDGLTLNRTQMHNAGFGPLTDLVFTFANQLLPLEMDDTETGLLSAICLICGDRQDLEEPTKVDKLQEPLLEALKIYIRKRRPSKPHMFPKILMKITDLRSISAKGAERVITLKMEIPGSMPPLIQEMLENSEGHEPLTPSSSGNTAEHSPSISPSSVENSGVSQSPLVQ
# Summary of the method: (§1)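 Binding of compounds to several retinoid receptor subtypes was measured. Results are given as Ki values in nanomolar concentration, derived per Cheng et al.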
# RXRα [2] = molecular target: T2, RXRα (Homo sapiens, UniProt P19793); test: ligand binding assay, RXRα; details: for Ki: read-out: RXR Bind Ki α; for Kd: Table 9 (Formula F), read-out: RXR α Kd
# T2 construct: expressed in transfected cells
# T2 sequence (P19793 1-462): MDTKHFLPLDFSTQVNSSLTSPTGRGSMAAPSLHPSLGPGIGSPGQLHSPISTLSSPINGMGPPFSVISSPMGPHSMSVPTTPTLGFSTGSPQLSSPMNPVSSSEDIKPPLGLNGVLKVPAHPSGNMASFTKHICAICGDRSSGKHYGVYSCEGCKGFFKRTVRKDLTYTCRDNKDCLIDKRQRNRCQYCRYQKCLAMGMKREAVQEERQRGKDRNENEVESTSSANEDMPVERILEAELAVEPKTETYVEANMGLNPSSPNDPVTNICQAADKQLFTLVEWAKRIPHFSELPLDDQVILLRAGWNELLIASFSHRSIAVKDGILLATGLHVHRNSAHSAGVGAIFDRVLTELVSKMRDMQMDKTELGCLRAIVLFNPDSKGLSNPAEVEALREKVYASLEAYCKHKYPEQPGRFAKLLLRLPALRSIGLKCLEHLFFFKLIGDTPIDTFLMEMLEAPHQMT
# Summary of the method: as §1
# RARβ [3] = molecular target: T3, RARβ (Homo sapiens, UniProt P10826); test: chimeric receptor transactivation assay, RARβ; type: cell-based; details: for EC50: chimeric receptor transactivation, read-out: RAR Trans. EC50 β; for Emax: percentage compared to the standard compound, read-out: RAR Trans. efficacy (number in parentheses) β
# T3 sequence (P10826 183-417 limits assumed): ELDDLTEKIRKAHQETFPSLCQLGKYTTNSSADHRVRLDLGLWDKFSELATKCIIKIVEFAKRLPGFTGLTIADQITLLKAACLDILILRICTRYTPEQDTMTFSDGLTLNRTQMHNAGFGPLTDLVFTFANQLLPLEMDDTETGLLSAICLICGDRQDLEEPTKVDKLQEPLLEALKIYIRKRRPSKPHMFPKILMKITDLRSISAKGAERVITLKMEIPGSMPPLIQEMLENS
# Summary of the method: (§2)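 RXR activation measured in holoreceptor transactivation assays; RAR subtypes in chimeric receptor transactivation assays. Values are EC50 in nM, with efficacy as percentage of maximal activity of a reference cyclopropyl-pentadienoic acid RXR agonist.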
# RXRα [4] = molecular target: T2, RXRα; test: holoreceptor transactivation assay, RXRα; type: cell-based; details: for EC50: holoreceptor transactivation, read-out: RXR Trans. EC50 α; for Emax: percentage compared to the standard compound, read-out: RXR Trans. efficacy (number in parentheses) α
# Summary of the method: as §2
# RXRγ = molecular target: T4, RXRγ (UniProt P28705); test: holoreceptor transactivation assay, RXRγ; type: cell-based; details: for EC50: holoreceptor transactivation, read-out: RXR Trans. EC50 γ; for RXR Trans. efficacy (number in parentheses) γ: percentage compared to the standard compound
# T4 sequence (P28705 1-463): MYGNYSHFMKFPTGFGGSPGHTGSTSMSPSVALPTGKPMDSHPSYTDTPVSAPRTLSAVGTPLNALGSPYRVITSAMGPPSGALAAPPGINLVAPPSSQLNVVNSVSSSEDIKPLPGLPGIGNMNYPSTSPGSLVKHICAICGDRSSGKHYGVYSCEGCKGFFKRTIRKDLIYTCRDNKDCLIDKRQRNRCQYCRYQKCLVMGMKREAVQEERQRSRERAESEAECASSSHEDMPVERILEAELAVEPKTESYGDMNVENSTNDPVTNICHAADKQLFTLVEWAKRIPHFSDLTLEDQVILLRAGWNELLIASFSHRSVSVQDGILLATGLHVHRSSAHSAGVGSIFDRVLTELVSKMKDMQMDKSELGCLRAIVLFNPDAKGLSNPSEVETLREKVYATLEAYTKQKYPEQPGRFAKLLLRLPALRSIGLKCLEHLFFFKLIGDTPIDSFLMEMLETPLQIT
# Summary of the method: as §2
Structure (SMILES),Ki (RARβ [1]) [nM],Ki (RXRα [2]) [nM],EC50 (RARβ [3]) [nM],EC50 (RXRα [4]) [nM],Emax (RXRα [4]) [%],EC50 (RXRγ) [nM],RXR Trans. efficacy (number in parentheses) γ (RXRγ) [%],Emax (RARβ [3]) [%],Kd (RARβ [1]) [nM],Kd (RXRα [2]) [nM]
"CCOc1cc2c(cc1\C(C)=C(F)/C=C/C(C)=C/C(=O)O)C=CCC2(C)C [Compound A-76, (2E,4E,6E)-7-(3-Ethoxy-5,5-dimethyl-5,6-dihydro-naphthalen-2-yl)-6-fluoro-3-methyl-octa-2,4.6-trienoic acid]",2600,35,> 10000,50,104,51,109,–,–,–
"CCOc1cc2c(cc1\C(CC)=C(F)/C=C/C(C)=C/C(=O)O)C(CC)=CCC2(C)C [Compound A-78, (2E,4E,6E)-7-(3-Ethoxy-8-ethyl-5,5-dimethyl-5,6-dihydro-naphthalen-2-yl)-6-fluoro-3-methyl-nona-2,4,6-trienoic acid]",477,3,43,3,23,4,11,68,–,–
"CCOc1cc2c(cc1\C(C)=C(F)/C=C/C(C)=C/C(=O)O)C(C(C)(C)C)=CCC2(C)C [Compound A-82, (2E,4E,6E)-6-Fluoro-3-(4,4-dimethyl-6-ethoxy-1-tert-butyl-3,4 dihydronaphthalen-7-yl)-3-methyl-2,4,6-octa-trienoic acid]",400,2,170,1,43,2,31,9,–,–
"CCOc1cc2c(cc1\C(CC)=C(F)/C=C/C(C)=C/C(=O)O)C(C(C)(C)C)=CCC2(C)C [Compound A-83, (2E,4E,6E)-7-(8-tert-Butyl-3-ethoxy-5,5-dimethyl-5,6-dihydronaphthalen-2-yl)-6-fluoro-3-methyl-nona-2,4,6-trienoic acid]",261,2,31,2,13,2,7,12,–,–
"CCOc1c(\C(CC)=C(F)/C=C/C(C)=C/C(=O)O)cc2c(c1Br)C(C)(C)CC=C2C(C)C [Compound A-170, (2E,4E,6E)-7-(4-Bromo-3-ethoxy-8-isopropyl-5,5-dimethyl-5,6-dihydro-naphthalen-2-yl)-6-fluoro-3-methyl-nona-2,4,6-trienoic acid]",–,–,3.5,0.2,60,0.4,53,8,56,2
"CCOc1c(\C(=C(F)/C=C/C(C)=C/C(=O)O)C(C)C)cc2c(c1Br)C(C)(C)CC=C2C(C)C [Compound A-171, (2E,4E,6E)-7-(4-Bromo-3-ethoxy-8-isopropyl-5,5-dimethyl-5,6-dihydro-naphthalen-2-yl)-6-fluoro-3.8-dimethyl-nona-2.4,6-trienoic acid]",–,–,2,0.9,24,2,16,12,37,2
"CCOc1c(\C(CC)=C(F)/C=C/C(C)=C/C(=O)O)cc2c(c1Cl)C(C)(C)CC=C2C(C)C [Compound A-178, (2E,4E,6E)-7-(4-Chloro-3-ethoxy-8-isopropyl-5,5-dimethyl-5,6-dihydronaphthalen-2-yl)-6-fluoro-3-methyl-nona-2,4,6-trienoic acid]",–,–,9,0.1,43,0.3,46,26,79,1
